Results as given in ChEMBL document CHEMBL1201862, “PubChem BioAssay data set” (2004).
Calls of active or inactive are those of the source. No stated cut-off is given here; in the data, actives have a measured IC50 and inactives only a lower limit.

Target: Envelope glycoprotein gp160 (Human immunodeficiency virus 1, UniProt Q6QLK5)
Experiment: inhibitors of HIV fusion peptide binding, primary screen, biochemical, uHTS, fluorescence dequenching (AID 1986)

Envelope glycoprotein gp160, sequence (Q6QLK5 whole entry, the tested form may be a part): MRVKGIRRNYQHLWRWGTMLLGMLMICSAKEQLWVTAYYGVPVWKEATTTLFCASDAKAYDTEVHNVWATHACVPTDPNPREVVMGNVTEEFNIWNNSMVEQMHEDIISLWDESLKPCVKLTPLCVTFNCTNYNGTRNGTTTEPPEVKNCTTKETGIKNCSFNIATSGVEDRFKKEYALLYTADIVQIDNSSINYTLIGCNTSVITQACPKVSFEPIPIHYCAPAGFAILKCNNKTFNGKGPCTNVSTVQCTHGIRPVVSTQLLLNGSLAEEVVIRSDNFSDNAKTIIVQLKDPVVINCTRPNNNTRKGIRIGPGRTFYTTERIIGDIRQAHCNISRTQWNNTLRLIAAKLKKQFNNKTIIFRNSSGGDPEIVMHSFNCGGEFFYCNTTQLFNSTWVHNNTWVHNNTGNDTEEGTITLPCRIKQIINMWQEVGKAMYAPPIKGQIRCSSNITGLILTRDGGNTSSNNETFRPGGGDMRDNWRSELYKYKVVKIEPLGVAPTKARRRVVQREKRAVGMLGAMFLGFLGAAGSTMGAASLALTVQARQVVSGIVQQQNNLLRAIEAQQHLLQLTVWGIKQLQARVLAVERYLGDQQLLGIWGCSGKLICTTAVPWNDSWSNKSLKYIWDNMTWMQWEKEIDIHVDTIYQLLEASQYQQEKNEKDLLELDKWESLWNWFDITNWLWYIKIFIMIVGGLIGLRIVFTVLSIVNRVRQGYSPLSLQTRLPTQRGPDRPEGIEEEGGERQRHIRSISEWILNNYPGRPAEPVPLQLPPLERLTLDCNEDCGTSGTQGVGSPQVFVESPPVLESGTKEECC

In the case of `COc1cc(/C=C2/C(=N)N3C(=NC2=O)SN=C3S(C)(=O)=O)ccc1OS(=O)(=O)c1ccccc1`, the IC50 is reported as 19.8 µM (active).
